Experimental data: US20070270429A1, “Function Inhibitor of Effector Cell” (priority 2003, published 2007)
Read-outs that look alike come from different tables or passages of the source.

Tests used:
[1] = tested on: human CD4-positive Th1 differentiation cell; experiment: Cell growth inhibition test of human CD4-positive Th1 differentiation cell (anti-CD3 antibody stimulation, BrdU uptake); assay type: cell-based
Protocol: After treating the cells with BrdU for a predetermined period of time, the plate was centrifuged (300×g, 10 minutes), and then turned upside down and lightly shaken to remove the labeled medium. The plate was dried (for about 15 minutes) using a hair dryer. A cell fixing and DNA denaturing solution (200 μl, attached to the kit) was added to each well and left alone for 30 minutes. After removing the cell fixing and DNA denaturing solution and further removing water, a peroxidase-labeled anti-BrdU antibody (anti-BrdU-POD reaction solution) (100 μl) (attached to the kit) was added thereto and left alone at room temperature for 90 minutes. The antibody solution was discarded, each well was washed three times with PBS (200 μl), water was discarded, and then the substrate solution (100 μl) (attached to the kit) was added thereto. After carrying out the enzyme reaction for a period of 5 to 30 minutes, 1 N sulfuric acid solution (25 μl) was added thereto and stirred on a shaker. The absorbance of samples was measured by a microplate reader (SPECTRAMAX-PRO) at 450 nm (control wavelength: 690 nm).
The cells fractionated by the method described in the above-described (2-1) were inoculated into a 96 well plate coated with the anti-human CD3 antibody, at a cell density of 2×10^5 cells/100 μl/well, a medium (100 μl) containing 2 times concentration solution of each drug to be tested (contains 0.2% DMSO) was added thereto, and the cells were cultured for 48 hours in a CO2 incubator (5% CO2, humidity 95%) kept at 37° C. The BrdU uptake activity was measured by the method described in the above-described (2-4).
The cell growth inhibition activity of human CD8-positive memory T cell by the compounds of the […] was calculated as the inhibition ratio (%) in accordance with the following formula, in which the value of well to which the medium containing DMSO but not containing the drug to be tested was added was used as the control value (A), and the value of well to which the DMSO-containing medium containing the drug to be tested was added as the value (B). Inhibition ratio (%)=[(A−B)/A]×100 Results:
A heparinized blood sample was collected from a human, healthy volunteer, and peripheral blood mononuclear cell (PBMC) was isolated by the density gradient centrifugation described in the above-described (2-1). CD4-positive T cell was isolated from PBMC by a negative selection method using Human T Cell CD4 Subset Column Kit (R & D Systems, Inc). Specifically, the cells to be removed such as B cell, CD8-positive T cell, monocyte and the like were labeled with antibodies by adding an antibody cocktail (1 ml) (attached to the kit) to PBMC (up to 2×10^8 cells) and incubating at room temperature for 15 minutes. […]

[2] = molecular target: T1, human CCR5 (Homo sapiens, UniProt P51681); experiment: Migration test of human CCR5 expression cell (hCCR5-Ba/F3 cell); assay type: cell-based; settings: hCCR5-Ba/F3 cells, 3 hours
T1 construct: expressed in transfected cells
T1 sequence (P51681 whole entry): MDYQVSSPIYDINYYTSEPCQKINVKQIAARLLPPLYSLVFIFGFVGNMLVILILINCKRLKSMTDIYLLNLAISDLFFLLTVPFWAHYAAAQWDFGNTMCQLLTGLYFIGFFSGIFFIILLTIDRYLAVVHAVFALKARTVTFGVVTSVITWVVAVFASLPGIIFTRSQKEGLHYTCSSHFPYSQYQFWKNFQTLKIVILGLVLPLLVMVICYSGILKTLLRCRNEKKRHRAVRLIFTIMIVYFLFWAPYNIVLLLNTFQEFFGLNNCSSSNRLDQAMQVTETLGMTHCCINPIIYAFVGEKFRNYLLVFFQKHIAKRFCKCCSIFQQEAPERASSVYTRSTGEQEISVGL
Protocol: The Ba/F3 cell was statically cultured in a CO2 incubator (temperature: 37° C., CO2 concentration: 5%, humidity: 100%) using RPMI-1640 medium (Gibco BRL) containing an antibiotic preparation (Antibiotic-Antimycotic) (final concentration: penicillin G sodium (100 U/ml), streptomycin sulfate (100 μg/ml), amphotericin B (0.25 μg/ml)) (Gibco BRL), fetal bovine serum (FBS) (10%) and interleukin 3 (IL-3) (5 ng/ml) (Pepro Tech, Inc). For the culturing of an external gene stably over-expressing cell, blasticidin (Kaken Pharmaceutical) was added to the above-described medium to a final concentration of 10 μg/ml.
The plasmid for human CCR5 expression (pEF-BOS-bsr′/hCCR5) was made into linear chain by digesting with AatII. The linear-chained plasmid was purified using QIA Quick PCR Purification Kit (QIAGEN) and then transferred into Ba/F3 cell by electroporation (Gene Pulser (BIO RAD) 960 μF/250 V). The cells were inoculated into a 96 well culture plate at a cell density of 1000, 100 or 10 cells/100 μl/well, and 48 hours thereafter, blasticidin was added thereto to a final concentration of 10 μg/ml to carry out cloning of blasticidin resistant strains, thereby establishing a stable over-expression clone capable of expressing the transferred external gene (hCCR5-Ba/F3 cell).
The test was started by superposing the upper chamber on the lower chamber, and the cells were cultured for 3 hours in a CO2 incubator (5% CO2, humidity 95%) kept at 37° C. Outside bottom moiety of the upper chamber was washed out into the lower chamber using 0.5 ml of a washing buffer (phosphate buffered saline (PBS) containing sodium ethylenediaminetetraacetate (EDTA) (2 mM (and FBS (0.1%)), and the number of cells in the lower chamber was counted using a flow cytometer (Becton Dickinson).
The migration inhibition activity by the compounds of the present invention was calculated as the inhibition ratio (%) in accordance with the following formula, in which the value of well to which the medium containing DMSO but not containing the drug to be tested was added was used as the control value (A), and the value of well to which the DMSO-containing medium containing the drug to be tested was added as the value (B). Inhibition ratio (%)=[(A−B)/A]×100

[3] = MIP-1α 3 nM in lower chamber, read-out: IC50 (nM), migration inhibition, chemokine MIP-1α
[4] = MIP-1β 3 nM in lower chamber, read-out: IC50 (nM), migration inhibition, chemokine MIP-1β
[5] = RANTES 3 nM in lower chamber, read-out: IC50 (nM), migration inhibition, chemokine RANTES

## CCCCN1C(=O)[C@@H]([C@H](O)C2CCCCC2)NC(=O)C12CCN(Cc1ccc(Cc3ccc(C(=O)O)cc3OC)cc1)CC2 [Compound (b), 4-[4-({(3R)-1-butyl-3-[(R)-cyclohexyl(hydroxy)methyl]-2,5-dioxo-1,4,9-triazaspiro[5.5]undec-9-yl}methyl)benzyl]-3-methoxybenzoic acid]
[1]; 0.1 μM
  inhibition ratio of cell growth: −2.3%
[1]; 10 μM
  inhibition ratio of cell growth: 21.8%
[2]; [3]
  IC50: 9.8 nM
[2]; [4]
  IC50: 11.1 nM
[2]; [5]
  IC50: 12.4 nM

## CCCCN1C(=O)[C@@H]([C@H](O)C2CCCCC2)NC(=O)C12CCN(Cc1ccc(Oc3ccc(C(=O)O)cc3OCC)cc1)CC2.Cl [Compound (c), 4-[4-({(3R)-1-butyl-3-[(R)-cyclohexyl(hydroxy)methyl]-2,5-dioxo-1,4,9-triazaspiro[5.5]undec-9-yl}methyl)phenoxy]-3-ethoxybenzoic acid hydrochloride]
[1]; 0.1 μM
  inhibition ratio of cell growth: 48.3%
[1]; 10 μM
  inhibition ratio of cell growth: 47.7%
[2]; [3]
  IC50: 17.3 nM
[2]; [4]
  IC50: 18.4 nM
[2]; [5]
  IC50: 22.5 nM
